{
  "source": "paper PMC6751662",
  "about": "“Pharmacological and functional similarities of the human neuropeptide Y system in C. elegans challenges phylogenetic views on the FLP/NPR system” (Cell Communication and Signaling : CCS, 2019)",
  "assay_type_in_all_cases": "cell-based, C. elegans",
  "key": {"NPR-3": {"molecular_target": "T1, NPR-3 (Caenorhabditis elegans, UniProt P90745)", "T1 construct": "expressed in transfected cells; host or cells: HEK293", "T1 sequence (P90745 1-376)": "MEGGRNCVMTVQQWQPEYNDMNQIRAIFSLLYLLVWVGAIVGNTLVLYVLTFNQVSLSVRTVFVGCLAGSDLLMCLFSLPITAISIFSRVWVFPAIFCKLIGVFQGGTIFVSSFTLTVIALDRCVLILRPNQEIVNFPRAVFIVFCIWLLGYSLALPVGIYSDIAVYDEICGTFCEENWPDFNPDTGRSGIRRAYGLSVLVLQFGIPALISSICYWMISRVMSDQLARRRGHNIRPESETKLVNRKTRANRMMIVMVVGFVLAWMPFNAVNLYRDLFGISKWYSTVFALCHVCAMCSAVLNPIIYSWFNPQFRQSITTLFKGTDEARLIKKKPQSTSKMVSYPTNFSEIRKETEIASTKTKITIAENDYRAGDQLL", "assay": "cAMP reporter gene assay, Gi/o (inhibition of forskolin-induced cAMP), NPR-3", "conditions": "for cAMP, x-fold of forskolin (mean), NPR-3: 1 µM forskolin set to 1.00, transiently transfected HEK293 cells, mean of at least three independent experiments", "protocol": "(§1) Activation of Gs and Gi/o was assessed with a cAMP reporter gene assay. HEK293 cells grown to 70–80% confluency in 6-well plates were transiently co-transfected with vectors encoding the receptor and the cAMP reporter gene plasmid pGL4.29 [luc2P/CRE/Hygro] (Promega; 4 μg total, 1:1 ratio) using Metafectene Pro (3 μl/μg DNA; Biontex) following the manufacturer’s instructions. 16 h post transfection, the cells were seeded into white 384-well plates at a density of 20,000 cells/well. On the next day, the medium was removed and the cells were stimulated with 20 μl of peptide solution (or forskolin as positive control) in serum-free DMEM for 4 h. For measuring Gi/o activity, the peptide solutions additionally contained 1 μM forskolin to elevate cellular cAMP levels. After incubation, the luciferase substrate OneGlo in lysis buffer (Promega) was added and the luminescence was measured in a microplate reader Tecan Spark (Tecan). Data were analyzed with GraphPad Prism 5.03 and are shown as fold of basal or fold of forskolin in case of Gαi/o activity.\n(§2) For in vitro activation, data is presented as mean ± SEM of at least three independent experiments conducted in technical triplicate. […] For the C. elegans NPRs, we considered the strongest response elicited by any of the peptides downstream of a particular receptor as the receptor’s maximal signal. This may or may not be the biological maximum that can be reached by the ‘true’ endogenous agonist. For the human receptors, the response to the established endogenous agonist reflected the maximal signal."}, "NPR-5b": {"molecular_target": "T2, NPR-5b (Caenorhabditis elegans, UniProt Q6F3C9)", "T2 sequence (Q6F3C9 1-433)": "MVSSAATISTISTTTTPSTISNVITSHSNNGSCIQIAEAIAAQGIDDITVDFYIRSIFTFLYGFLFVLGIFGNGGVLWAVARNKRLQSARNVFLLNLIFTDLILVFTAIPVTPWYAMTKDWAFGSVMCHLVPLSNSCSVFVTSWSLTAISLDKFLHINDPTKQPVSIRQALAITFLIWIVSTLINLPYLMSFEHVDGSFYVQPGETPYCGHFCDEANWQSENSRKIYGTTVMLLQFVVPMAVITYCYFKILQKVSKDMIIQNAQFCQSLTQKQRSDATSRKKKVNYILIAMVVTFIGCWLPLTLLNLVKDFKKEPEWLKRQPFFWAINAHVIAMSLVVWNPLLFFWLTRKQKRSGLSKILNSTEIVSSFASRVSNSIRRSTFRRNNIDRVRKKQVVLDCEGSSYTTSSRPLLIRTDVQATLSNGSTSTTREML", "assay": "cAMP reporter gene assay, Gi/o (with forskolin), NPR-5b", "set-up": "Emax: unit not given here", "conditions": "transiently transfected HEK293 cells; for Emax: forskolin (1 µM) set to 1.00, increase of cAMP, mean ± SEM of at least three independent experiments, SEM; for cAMP, x-fold of forskolin (mean), NPR-5b: 1 µM forskolin set to 1.00, values > 1 = cAMP stimulation, mean of at least three independent experiments", "protocol": "as §1, with “(Tecan).” for “(Tecan). Data were analyzed with GraphPad Prism 5.03 and are shown as fold of basal or fold of forskolin in case of Gαi/o activity.”\nas §2"}, "NPR-11": {"molecular_target": "T3, NPR-11 (Caenorhabditis elegans, UniProt Q18179)", "T3 construct": "expressed in transfected cells; host or cells: HEK293, transient", "T3 sequence (Q18179 1-402)": "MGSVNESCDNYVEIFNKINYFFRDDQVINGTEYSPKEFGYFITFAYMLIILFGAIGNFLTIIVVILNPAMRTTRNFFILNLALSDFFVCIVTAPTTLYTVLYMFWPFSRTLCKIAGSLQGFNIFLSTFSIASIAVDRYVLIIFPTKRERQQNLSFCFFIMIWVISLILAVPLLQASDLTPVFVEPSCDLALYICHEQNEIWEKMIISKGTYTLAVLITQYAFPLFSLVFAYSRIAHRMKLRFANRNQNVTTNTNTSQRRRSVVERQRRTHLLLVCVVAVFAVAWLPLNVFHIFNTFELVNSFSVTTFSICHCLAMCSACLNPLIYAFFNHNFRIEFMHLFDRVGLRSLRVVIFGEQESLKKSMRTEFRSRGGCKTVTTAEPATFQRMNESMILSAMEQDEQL", "assay": "cAMP reporter gene assay, Gi/o (inhibition of forskolin-induced cAMP), NPR-11", "conditions": "for Emax: HEK293, read-out: Emax ± SEM [%]; for cAMP, x-fold of forskolin (mean), NPR-11: 1 µM forskolin set to 1.00, transiently transfected HEK293 cells, mean of at least three independent experiments", "protocol": "as §1, §2"}, "NPR-4b": {"molecular_target": "T4, NPR-4b (Caenorhabditis elegans, UniProt A0A078BTK0)", "T4 sequence (A0A078BTK0 1-376)": "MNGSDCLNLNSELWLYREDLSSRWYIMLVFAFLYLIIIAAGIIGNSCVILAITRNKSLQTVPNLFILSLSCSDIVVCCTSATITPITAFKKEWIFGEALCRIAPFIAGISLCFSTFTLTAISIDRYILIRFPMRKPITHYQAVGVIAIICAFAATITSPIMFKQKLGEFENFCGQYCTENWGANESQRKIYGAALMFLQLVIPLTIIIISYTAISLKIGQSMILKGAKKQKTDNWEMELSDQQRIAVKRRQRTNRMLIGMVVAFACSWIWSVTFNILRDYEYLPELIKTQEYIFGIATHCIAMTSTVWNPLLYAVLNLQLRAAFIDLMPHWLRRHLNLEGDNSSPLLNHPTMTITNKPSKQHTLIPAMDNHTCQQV", "assay": "cAMP reporter gene assay, Gi/o (inhibition of forskolin-induced cAMP), NPR-4b", "conditions": "transiently transfected HEK293 cells; for Emax: NPR-4b, forskolin (1 µM) set to 1.00, lower values correspond to high Gi/o activity, mean ± SEM of at least three independent experiments, SEM; for cAMP, x-fold of forskolin (mean), NPR-4b: 1 µM forskolin set to 1.00, mean of at least three independent experiments", "protocol": "as §1, with “(Tecan).” for “(Tecan). Data were analyzed with GraphPad Prism 5.03 and are shown as fold of basal or fold of forskolin in case of Gαi/o activity.”\nas §2"}},
  "note": "Read-outs that look alike come from different tables or passages of the source. Ends that are not written are not given here.",
  "data": [
    {"substance": "RGPSGPLRF-NH2 [FLP-15-2]", "values": [
      {"measurement": "Emax", "setting": "NPR-3; HEK293, read-out: Emax ± SEM [%], SEM", "result": "-0.8 ± 0.09", "unit": "%"},
      {"measurement": "EC50", "setting": "NPR-3; SEM", "result": 50.1, "unit": "nM"},
      {"measurement": "Emax", "setting": "NPR-5b; NPR-5b", "result": "3.28 ± 1.7"},
      {"measurement": "EC50", "setting": "NPR-5b; NPR-5b, full concentration-response curve, with 1 µM forskolin, increase of cAMP, at least three independent experiments", "result": 6650, "unit": "nM"},
      {"measurement": "EC50", "setting": "NPR-11", "result": 998, "unit": "nM"},
      {"measurement": "Emax", "setting": "NPR-11; SEM", "result": "-0.76 ± 0.11", "unit": "%"},
      {"measurement": "Emax", "setting": "NPR-4b", "result": "-0.65 ± 0.07", "unit": "%"}
    ]},
    {"substance": "TPDINPAWYASRGIRPVGRF-NH2 [PrRP20, human prolactin-releasing peptide, 20 residues, reference compound]", "values": [
      {"measurement": "cAMP, x-fold of forskolin (mean), NPR-3", "setting": "NPR-3; 0.1 µM peptide", "result": "1.00 x-fold of forskolin"},
      {"measurement": "cAMP, x-fold of forskolin (mean), NPR-3", "setting": "NPR-3; 10 µM peptide", "result": "1.23 x-fold of forskolin"},
      {"measurement": "cAMP, x-fold of forskolin (mean), NPR-5b", "setting": "NPR-5b; 0.1 µM peptide", "result": "0.90 x-fold of forskolin"},
      {"measurement": "cAMP, x-fold of forskolin (mean), NPR-5b", "setting": "NPR-5b; 10 µM peptide", "result": "1.05 x-fold of forskolin"},
      {"measurement": "cAMP, x-fold of forskolin (mean), NPR-11", "setting": "NPR-11; 0.1 µM peptide", "result": "0.90 x-fold of forskolin"},
      {"measurement": "cAMP, x-fold of forskolin (mean), NPR-11", "setting": "NPR-11; 10 µM peptide", "result": "0.65 x-fold of forskolin"},
      {"measurement": "cAMP, x-fold of forskolin (mean), NPR-4b", "setting": "NPR-4b; 0.1 µM peptide", "result": "1.10 x-fold of forskolin"},
      {"measurement": "cAMP, x-fold of forskolin (mean), NPR-4b", "setting": "NPR-4b; 10 µM peptide", "result": "0.67 x-fold of forskolin"}
    ]},
    {"substance": "PrRP31 [reference compound]", "values": [
      {"measurement": "cAMP, x-fold of forskolin (mean), NPR-3", "setting": "NPR-3; 0.1 µM peptide", "result": "1.10 x-fold of forskolin"},
      {"measurement": "cAMP, x-fold of forskolin (mean), NPR-3", "setting": "NPR-3; 10 µM peptide", "result": "1.29 x-fold of forskolin"},
      {"measurement": "cAMP, x-fold of forskolin (mean), NPR-5b", "setting": "NPR-5b; 0.1 µM peptide", "result": "0.91 x-fold of forskolin"},
      {"measurement": "cAMP, x-fold of forskolin (mean), NPR-5b", "setting": "NPR-5b; 10 µM peptide", "result": "1.10 x-fold of forskolin"},
      {"measurement": "cAMP, x-fold of forskolin (mean), NPR-11", "setting": "NPR-11; 0.1 µM peptide", "result": "1.06 x-fold of forskolin"},
      {"measurement": "cAMP, x-fold of forskolin (mean), NPR-11", "setting": "NPR-11; 10 µM peptide", "result": "0.74 x-fold of forskolin"},
      {"measurement": "cAMP, x-fold of forskolin (mean), NPR-4b", "setting": "NPR-4b; 0.1 µM peptide", "result": "1.05 x-fold of forskolin"},
      {"measurement": "cAMP, x-fold of forskolin (mean), NPR-4b", "setting": "NPR-4b; 10 µM peptide", "result": "0.64 x-fold of forskolin"}
    ]},
    {"substance": "SEVPGVLRF-NH2 [FLP-18-5]", "values": [
      {"measurement": "Emax", "setting": "NPR-5b; NPR-5b", "result": "3.6 ± 0.22"},
      {"measurement": "Emax", "setting": "NPR-11; SEM", "result": "-0.16 ± 0.08", "unit": "%"},
      {"measurement": "EC50", "setting": "NPR-11; SEM", "result": 79.4, "unit": "nM"},
      {"measurement": "Emax", "setting": "NPR-4b", "result": "-0.6 ± 0.05", "unit": "%"}
    ]}
  ]
}
